Measured values reported in PubChem BioAssay (NCI).
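A five-concentration, 48-hour dose response in 96-well plates underlies each endpoint, interpolated linearly between surrounding concentrations. At the TGI there is no net growth.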 *1 amine or outer side, *2 acyl side, *3 side chain or, on linkers, in order; H or OH if unused. Where a SMILES comes first, the peptide text is derived from it. [ ]: non-standard residue; d: D form. X33 = C=CCC(O[*:1])C(=O)[*:2]; NMeV = CN[CH](C(=O)O)C(C)C; NMeA = CN[CH](C)C(=O)O; βAla = NCCC(=O)O

Assays:
Assay in all cases: inhibition of tumour cell growth, NCI panel, 48 h
MALME-3M melanoma = tested on: MALME-3M melanoma
T-47D breast = tested on: T-47D breast
DU-145 prostate = tested on: DU-145 prostate
RPMI-8226 leukemia = tested on: RPMI-8226 leukemia
NCI-H23 lung = tested on: NCI-H23 lung
NCI/ADR-RES ovarian = tested on: NCI/ADR-RES ovarian
MOLT-4 leukemia = tested on: MOLT-4 leukemia
HS 578T breast = tested on: HS 578T breast
UACC-257 melanoma = tested on: UACC-257 melanoma
OVCAR-3 ovarian = tested on: OVCAR-3 ovarian
NCI-H460 lung = tested on: NCI-H460 lung
OVCAR-5 ovarian = tested on: OVCAR-5 ovarian
HL-60(TB) leukemia = tested on: HL-60(TB) leukemia
TK-10 renal = tested on: TK-10 renal
SK-OV-3 ovarian = tested on: SK-OV-3 ovarian
IGROV1 ovarian = tested on: IGROV1 ovarian
LOX IMVI melanoma = tested on: LOX IMVI melanoma

| SMILES | TGI (MALME-3M melanoma) | TGI (T-47D breast) | TGI (DU-145 prostate) | TGI (RPMI-8226 leukemia) | TGI (NCI-H23 lung) | TGI (NCI/ADR-RES ovarian) | TGI (MOLT-4 leukemia) | TGI (HS 578T breast) | TGI (UACC-257 melanoma) | TGI (OVCAR-3 ovarian) | TGI (NCI-H460 lung) | TGI (OVCAR-5 ovarian) | TGI (HL-60(TB) leukemia) | TGI (TK-10 renal) | TGI (SK-OV-3 ovarian) | TGI (IGROV1 ovarian) | TGI (LOX IMVI melanoma) |
| --- | --- | --- | --- | --- | --- | --- | --- | --- | --- | --- | --- | --- | --- | --- | --- | --- | --- |
| COC(=O)CC(=O)Nc1sccc1S(=O)(=O)c1ccccc1 | > 100 µM | > 100 µM | > 100 µM | > 100 µM | > 100 µM | > 100 µM | > 100 µM | > 100 µM | > 100 µM | 43.5 µM | > 100 µM | > 100 µM | > 100 µM | > 100 µM | > 100 µM | > 100 µM | – |
| C=C1C(=O)O[C@H]2[C@H]3O[C@@H](C[C@@H]12)[C@@]1(C)CC[C@H](O1)C(C)=CCC[C@H]3C | 3.15 µM | 6.3 µM | 2.86 µM | 2.46 µM | 2.96 µM | 3.33 µM | – | 8.95 µM | 3.59 µM | 2.7 µM | 7.26 µM | 11.5 µM | 1.03 µM | 2.93 µM | 16.2 µM | 3.83 µM | 2.89 µM |
| NNCCc1n[nH]c(=O)n1N | > 100 µM | > 100 µM | > 100 µM | > 100 µM | > 100 µM | > 100 µM | > 100 µM | > 100 µM | > 100 µM | > 100 µM | > 100 µM | > 100 µM | > 100 µM | – | > 100 µM | > 100 µM | > 100 µM |
| Oc1ccc(/C=C/c2ccc3cccc(O)c3n2)cc1O | – | 6.52 µM | 12.3 µM | 78 µM | – | 2.56 µM | 21.5 µM | > 100 µM | 47.3 µM | 46 µM | 13.9 µM | 46.3 µM | > 100 µM | 90.8 µM | > 100 µM | > 100 µM | 16.5 µM |
| O=C(CCCN1CCC2(CC1)CC(=O)N(N1CCCCCC1)C2=O)c1ccc(F)cc1 | > 100 µM | > 100 µM | > 100 µM | > 100 µM | > 100 µM | 37.3 µM | > 100 µM | > 100 µM | > 100 µM | > 100 µM | – | > 100 µM | > 100 µM | > 100 µM | > 100 µM | > 100 µM | > 100 µM |
| C=CCC1OC(=O)CCNC(=O)C(C)N(C)C(=O)C(C(C)C)N(C)C(=O)C(C(C)CC)NC(=O)C2CCCN2C1=O (stereo not drawn) (cyclo([X33]PI[NMeV][NMeA][βAla]); configuration not given here) | – | > 100 µM | > 100 µM | 7.84 µM | > 100 µM | > 100 µM | > 100 µM | > 100 µM | 71.6 µM | > 100 µM | > 100 µM | > 100 µM | 8.47 µM | > 100 µM | – | > 100 µM | 5.17 µM |
| O=C1OCC/C1=C/c1ccc(N=Nc2c(O)ccc3ccccc23)cc1 | 32.3 µM | > 100 µM | 36.6 µM | 53.8 µM | 44.8 µM | 41.7 µM | 51.1 µM | 54.3 µM | 40.3 µM | 34.4 µM | 47.3 µM | 42.2 µM | 57.1 µM | 35.3 µM | 55.3 µM | 54.7 µM | – |
| COc1ccc(C(=O)/C=C/c2cccnc2)cc1OC | 28.5 µM | 22 µM | 27.8 µM | – | 22.9 µM | 36.5 µM | 14.1 µM | 49.6 µM | 29 µM | 11 µM | – | 24.6 µM | 6.01 µM | 29.1 µM | 28.6 µM | 21.9 µM | 3.81 µM |
| Cc1ccc2c(c1)-c1c(C#N)c(N)nc(-c3ccccc3)c1CCS2(=O)=O | > 100 µM | > 100 µM | > 38.9 µM | 32.9 µM | > 62.7 µM | > 46.5 µM | > 100 µM | > 47.6 µM | > 100 µM | > 100 µM | > 100 µM | > 100 µM | – | > 100 µM | 46 µM | > 51.1 µM | > 100 µM |
| Cn1c(=O)c2c(ncn2CCCCOc2ccc3c(c2)[n+]([O-])nc(N)[n+]3[O-])n(C)c1=O | > 100 µM | 12.1 µM | > 100 µM | > 100 µM | > 100 µM | > 100 µM | > 100 µM | > 100 µM | > 100 µM | > 100 µM | > 100 µM | – | > 100 µM | > 100 µM | > 100 µM | 67.6 µM | > 100 µM |
| Nc1ncnc2c1cnn2Cc1cn(COCC(O)CO)nn1 (stereo not drawn) | – | > 100 µM | > 100 µM | – | > 100 µM | > 100 µM | – | 32.8 µM | > 100 µM | > 100 µM | – | > 100 µM | > 100 µM | > 100 µM | > 100 µM | > 100 µM | > 100 µM |
| CCCCCC[C@H]1C(=O)O[C@H](C)[C@H](NC(=O)c2cccc(NC=O)c2OC)C(=O)O[C@@H](C)[C@@H]1OC(=O)CC(C)C (tested in a mixture with another compound) | > 100 µM | > 100 µM | > 100 µM | > 100 µM | 48.3 µM | 84.9 µM | > 100 µM | > 100 µM | 55.7 µM | 22.5 µM | > 100 µM | > 100 µM | > 100 µM | 50.8 µM | 39.2 µM | – | > 100 µM |
| Cn1cnc(N2CCCC2)c(C#N)c1=O | > 100 µM | > 100 µM | > 100 µM | > 100 µM | > 100 µM | > 100 µM | > 100 µM | > 100 µM | > 100 µM | > 100 µM | > 100 µM | > 100 µM | > 100 µM | > 100 µM | – | > 100 µM | > 100 µM |
| Clc1nc(NCCc2ccccc2)c2ncn(-c3ccccc3)c2n1 | 52.4 µM | 98.2 µM | 83.4 µM | 47.3 µM | 77.3 µM | 57.9 µM | 51 µM | 76.7 µM | 34.6 µM | 82.2 µM | 33.7 µM | > 100 µM | – | 71.2 µM | 60.7 µM | > 100 µM | 43.1 µM |
